# Source: US20230069722A1, “TUBULYSINS AND PROTEIN-TUBULYSIN CONJUGATES” (priority 2020, published 2023)
# Like-named read-outs stand apart in the source and are kept apart here.
# Tested on: HCT15 cells
# Experiment: MDR cell based killing assay, HCT15 cells with or without Verapamil (CellTiter-Glo)
# Parameters: species or system human
# Conditions: Homo sapiens
# Method: To test the ability of the disclosed tubulysin payloads or prodrug payloads to kill human cell lines, an in vitro cytotoxicity assay can be performed. In vitro cytotoxicity of the disclosed payloads, as well as reference compounds, are evaluated using the CellTiter-Glo Assay Kit (Promega, Cat # G7573), in which the quantity of ATP present is used to determine the number of viable cells in culture. For the assay, C4-2, HEK293, or T47D cells are seeded at 4000 cells/well on Nunclon white 96-well plates in complete growth medium (DME high glucose:Ham's F12 at 4:1, 10% FBS, 100 units/ml Penicillin, 100 ug/ml streptomycin, 53 ug/ml glutatmine, 10 ug/ml insulin, 220 ng/ml biotin, 12.5 pg/ml T3, 12.5 ug/ml Adenine, 4 ug/ml transferrin for C42 cells; DME high glucose, 10% FBS, 100 units/ml Penicillin, 100 ug/ml streptomycin, 53 ug/ml glutatmine for HEK293; RPMI, 10% FBS, 100 units/ml Penicillin, 100 ug/ml streptomycin, 53 ug/ml glutatmine, 10 ug/ml insulin, 10 mM HEPEs, 200 nM Sodium Pyruvate for T47D cells) and grown overnight at 37° C. in 5% CO2. For cell viability curves, 1:3 serially diluted payloads are added to the cells at final concentrations ranging from 100 nM to 15 pM, including a no treatment control group, and are then incubated for 5 days. After the 5-day incubation, cells are incubated at room temperature with 100 μL of CellTiter-Glo reagents for 10 minutes. Relative luminescence units (RLU) can be determined on a Victor plate reader (PerkinElmer). The IC50 values are determined from a four-parameter logistic equation over a 10-point response curve (GraphPad Prism). All IC50 values are expressed in molar (M) concentration. The percent cell killing (% kill) at the maximum concentration tested is estimated from the following formula (100−% viable cells). Averages±standard deviation (SD) can be included where replicate experiments are performed.
# In vitro cytotoxicity of the disclosed payloads as well as reference compounds are evaluated similarly as described above except using 1000 HCT15 cells, a colorectal carcinoma cell line, in growth medium (RPMI, 10% FBS, 100 units/ml Penicillin, 100 ug/ml streptomycin, 53 ug/ml glutatmine) with or without 5 ug/mL of Verapamil.
# For each payload or prodrug payload, the HCT-15 IC50 in the absence of Verapamil is divided by the HCT-15 IC50 in the presence of Verapamil (HCT-15 IC50/HCT-15+Verapamil IC50). […] The reference compound, (MMAE), can have a ratio of 23.7. […]
# [1] = HCT-15, read-out: HCT-15 with verapamil IC50
structure (smiles),measurement,setting,value
"C#CCCCON(C(=O)[C@@H](NC(=O)[C@H]1CCCCN1C)[C@@H](C)CC)[C@H](C[C@@H](OC(C)=O)c1nc(C(=O)N[C@@H](Cc2ccc(NC(=O)[C@H](N)CCC(=O)O)cc2)CC(C)(C)C(=O)O)cs1)C(C)C [Compound P41, (4S)-4-({2-[(1R,3R)-1-(acetyloxy)-4-methyl-3-[(2S,3S)-3-methyl-2-{[(2R)-1-methylpiperidin-2-yl]formamido}-N-(pent-4-yn-1-yloxy)pentanamido]pentyl]-1,3-thiazol-4-yl}formamido)-5-{4-[(2R)-2-amino-4-carboxybutanamido]phenyl}-2,2-dimethylpentanoic Acid]",IC50,"HCT-15, read-out: HCT-15 IC50",82.7 nM
"CCCCCCN(C(=O)[C@@H](NC(=O)[C@H]1C[C@H](C)CCN1)[C@@H](C)CC)[C@H](C[C@@H](OCC)c1nc(C(=O)N[C@@H](Cc2ccc(N)cc2)CC(C)(C)C(=O)O)cs1)C(C)C [Compound P21, (4S)-5-(4-aminophenyl)-4-({2-[(1R,3R)-1-ethoxy-3-[(2S,3S)—N-hexyl-3-methyl-2-{[(2R,4R)-4-methylpiperidin-2-yl]formamido}pentanamido]-4-methylpentyl]-1,3-thiazol-4-yl}formamido)-2,2-dimethylpentanoic Acid]",IC50,"HCT-15, read-out: HCT-15 IC50",11.1 nM
same,IC50,[1],1.47 nM
"CCCCCCN(C(=O)[C@@H](NC(=O)[C@H]1CCCCN1)[C@@H](C)CC)[C@H](C[C@@H](OCC)c1nc(C(=O)N[C@@H](Cc2ccc(N)cc2)CC(C)(C)C(=O)O)cs1)C(C)C [Compound P20, (4S)-5-(4-aminophenyl)-4-({2-[(1R,3R)-1-ethoxy-3-[(2S,3S)—N-hexyl-3-methyl-2-[(2R)-piperidin-2-ylformamido]pentanamido]-4-methylpentyl]-1,3-thiazol-4-yl}formamido)-2,2-dimethylpentanoic Acid]",IC50,"HCT-15, read-out: HCT-15 IC50",6.97 nM
same,IC50,[1],0.52 nM
"C#CCCCON(C(=O)[C@@H](NC(=O)[C@H]1CCCCN1C)[C@@H](C)CC)[C@H](C[C@@H](OC(C)=O)c1nc(C(=O)N[C@@H](Cc2ccc(O)cc2)CC(C)(C)C(=O)O)cs1)C(C)C [Compound P51, (4S)-4-({2-[(1R,3R)-1-(acetyloxy)-4-methyl-3-[(2S,3S)-3-methyl-2-{[(2R)-1-methylpiperidin-2-yl]formamido}-N-(pent-4-yn-1-yloxy)pentanamido]pentyl]-1,3-thiazol-4-yl}formamido)-5-(4-hydroxyphenyl)-2,2-dimethylpentanoic Acid]",IC50,"HCT-15, read-out: HCT-15 IC50",0.41 nM
same,IC50,[1],0.16 nM
"CCCCCCN(C(=O)[C@@H](NC(=O)[C@H]1CCCCN1C)[C@@H](C)CC)[C@H](C[C@@H](OC(=O)NCCOCCOCCOCCN)c1nc(C(=O)N[C@@H](Cc2ccc(F)cc2)CC(C)(C)C(=O)O)cs1)C(C)C [Compound P11, (4S)-4-({2-[(1R,3R)-1-{[(2-{2-[2-(2-aminoethoxy)ethoxy]ethoxy}ethyl)carbamoyl]oxy}-3-[(2S,3S)—N-hexyl-3-methyl-2-{[(2R)-1-methylpiperidin-2-yl]formamido}pentanamido]-4-methylpentyl]-1,3-thiazol-4-yl}formamido)-5-(4-fluorophenyl)-2,2-dimethylpentanoic Acid]",IC50,"HCT-15, read-out: HCT-15 IC50",157 nM
"CCCCCCN(C(=O)[C@@H](NC(=O)[C@H]1CCCCN1)[C@@H](C)CC)[C@H](C[C@@H](OCC)c1nc(C(=O)N[C@@H](Cc2ccc(N)c(F)c2)CC(C)(C)C(=O)O)cs1)C(C)C [Compound P16, (4S)-5-(4-amino-3-fluorophenyl)-4-({2-[(1R,3R)-1-ethoxy-3-[(2S,3S)—N-hexyl-3-methyl-2-[(2R)-piperidin-2-ylformamido]pentanamido]-4-methylpentyl]-1,3-thiazol-4-yl}formamido)-2,2-dimethylpentanoic Acid]",IC50,"HCT-15, read-out: HCT-15 IC50",1.96 nM
same,IC50,[1],0.18 nM
"C#CCCCON(C(=O)[C@@H](NC(=O)[C@H]1CCCCN1C)[C@@H](C)CC)[C@H](C[C@@H](OC(C)=O)c1nc(C(=O)N[C@@H](Cc2ccc(N)cc2)CC(C)(C)C(=O)O)cs1)C(C)C [Compound P34, (4S)-4-({2-[(1R,3R)-1-(acetyloxy)-4-methyl-3-[(2S,3S)-3-methyl-2-{[(2R)-1-methylpiperidin-2-yl]formamido}-N-(pent-4-yn-1-yloxy)pentanamido]pentyl]-1,3-thiazol-4-yl}formamido)-5-(4-aminophenyl)-2,2-dimethylpentanoic Acid]",IC50,"HCT-15, read-out: HCT-15 IC50",0.41 nM
same,IC50,[1],0.24 nM
"CCCCCCN(C(=O)[C@@H](NC(=O)[C@@]1(C)CCCN1)[C@@H](C)CC)[C@H](C[C@@H](OC(C)=O)c1nc(C(=O)N[C@@H](Cc2ccc(N)c(F)c2)CC(C)(C)C(=O)O)cs1)C(C)C [Compound P15, (4S)-4-({2-[(1R,3R)-1-(acetyloxy)-3-[(2S,3S)—N-hexyl-3-methyl-2-{[(2R)-2-methylpyrrolidin-2-yl]formamido}pentanamido]-4-methylpentyl]-1,3-thiazol-4-yl}formamido)-5-(4-amino-3-fluorophenyl)-2,2-dimethylpentanoic Acid]",IC50,"HCT-15, read-out: HCT-15 IC50",1.01 nM
same,IC50,[1],0.19 nM
"CCCCCCN(C(=O)[C@@H](NC(=O)[C@H]1CCCCN1C)[C@@H](C)CC)[C@H](C[C@@H](O)c1nc(C(=O)N[C@@H](Cc2ccc(N)cc2)CC(C)(C)C(=O)O)cs1)C(C)C [Compound P6, (4S)-5-(4-aminophenyl)-4-({2-[(1R,3R)-3-[(2S,3S)—N-hexyl-3-methyl-2-{[(2R)-1-methylpiperidin-2-yl]formamido}pentanamido]-1-hydroxy-4-methylpentyl]-1,3-thiazol-4-yl}formamido)-2,2-dimethylpentanoic Acid]",IC50,"HCT-15, read-out: HCT-15 IC50",16.3 nM
same,IC50,[1],0.78 nM
"CCCCCCN(C(=O)[C@@H](NC(=O)[C@@]1(C)CCCN1)[C@@H](C)CC)[C@H](C[C@@H](OC(=O)NC)c1nc(C(=O)N[C@@H](Cc2ccc(O)cc2)CC(C)(C)C(=O)O)cs1)C(C)C [Compound P23, (4S)-4-({2-[(1R,3R)-3-[(2S,3S)—N-hexyl-3-methyl-2-{[(2R)-2-methylpyrrolidin-2-yl]formamido}pentanamido]-4-methyl-1-[(methylcarbamoyl)oxy]pentyl]-1,3-thiazol-4-yl}formamido)-5-(4-hydroxyphenyl)-2,2-dimethylpentanoic Acid]",IC50,"HCT-15, read-out: HCT-15 IC50",3.6 nM
same,IC50,[1],0.06 nM
"CCCCCCN(C(=O)[C@@H](NC(=O)[C@H]1CCCCN1)[C@@H](C)CC)[C@H](C[C@@H](OC(C)=O)c1nc(C(=O)N[C@@H](Cc2ccc(N)cc2)CC(C)(C)C(=O)O)cs1)C(C)C [Compound P18, (4S)-4-({2-[(1R,3R)-1-(acetyloxy)-3-[(2S,3S)—N-hexyl-3-methyl-2-[(2R)-piperidin-2-ylformamido]pentanamido]-4-methylpentyl]-1,3-thiazol-4-yl}formamido)-5-(4-aminophenyl)-2,2-dimethylpentanoic Acid]",IC50,"HCT-15, read-out: HCT-15 IC50",0.98 nM
same,IC50,[1],0.05 nM
"CCCCCCN(C(=O)[C@@H](NC(=O)[C@H]1CCCCN1C)[C@@H](C)CC)[C@H](C[C@@H](OC(=O)NCCN)c1nc(C(=O)N[C@@H](Cc2ccc(N)c(F)c2)CC(C)(C)C(=O)O)cs1)C(C)C [Compound P5, (4S)-5-(4-amino-3-fluorophenyl)-4-({2-[(1R,3R)-1-{[(2-aminoethyl)carbamoyl]oxy}-3-[(2S,3S)—N-hexyl-3-methyl-2-{[(2R)-1-methylpiperidin-2-yl]formamido}pentanamido]-4-methylpentyl]-1,3-thiazol-4-yl}formamido)-2,2-dimethylpentanoic Acid]",IC50,"HCT-15, read-out: HCT-15 IC50",38.6 nM
same,IC50,[1],4.44 nM
